Measurements taken from ChEMBL document CHEMBL1128372, “Design and syntheses of potent and selective dipeptide inhibitors of Candida albicans myristoyl-CoA:protein N-myristoyltransferase” (J Med Chem, 1995).
Where a SMILES comes first, the peptide text is derived from it. [ ]: non-standard residue; d: D form. Aun = NCCCCCCCCCCC(=O)O

What was measured:
[1] = target: T1, Peptide N-myristoyltransferase (Homo sapiens, UniProt P30419+O60551); assay: Inhibitory activity against human N-Myristoyltransferase (NMT).; assay type: protein assay
T1 sequence (P30419 whole entry): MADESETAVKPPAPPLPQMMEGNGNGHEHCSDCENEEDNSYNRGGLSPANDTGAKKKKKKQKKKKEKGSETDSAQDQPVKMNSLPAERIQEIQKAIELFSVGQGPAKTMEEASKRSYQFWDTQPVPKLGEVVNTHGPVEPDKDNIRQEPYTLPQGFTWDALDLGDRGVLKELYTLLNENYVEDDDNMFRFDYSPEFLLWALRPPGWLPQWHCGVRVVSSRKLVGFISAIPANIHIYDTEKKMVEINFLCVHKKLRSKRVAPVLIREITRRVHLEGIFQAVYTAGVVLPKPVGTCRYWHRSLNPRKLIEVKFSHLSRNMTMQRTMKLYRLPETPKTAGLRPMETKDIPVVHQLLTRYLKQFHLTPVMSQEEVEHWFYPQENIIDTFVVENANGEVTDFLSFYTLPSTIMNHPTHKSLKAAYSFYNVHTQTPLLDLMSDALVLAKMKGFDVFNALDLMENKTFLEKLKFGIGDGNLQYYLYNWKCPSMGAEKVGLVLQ
T1 sequence (O60551 whole entry): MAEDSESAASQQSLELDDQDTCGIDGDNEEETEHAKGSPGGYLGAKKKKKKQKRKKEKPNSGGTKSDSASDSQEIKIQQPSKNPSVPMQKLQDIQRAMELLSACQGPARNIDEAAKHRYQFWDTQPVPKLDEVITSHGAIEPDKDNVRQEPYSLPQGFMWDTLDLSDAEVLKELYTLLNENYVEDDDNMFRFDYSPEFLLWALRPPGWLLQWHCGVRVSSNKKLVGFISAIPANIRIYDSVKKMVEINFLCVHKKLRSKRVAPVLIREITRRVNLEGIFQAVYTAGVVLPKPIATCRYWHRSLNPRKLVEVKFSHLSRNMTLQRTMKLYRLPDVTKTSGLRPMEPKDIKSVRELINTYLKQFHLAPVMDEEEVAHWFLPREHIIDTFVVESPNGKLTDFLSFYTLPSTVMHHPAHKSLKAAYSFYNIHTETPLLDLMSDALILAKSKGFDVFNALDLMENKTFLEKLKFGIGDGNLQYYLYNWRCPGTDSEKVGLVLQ

[2] = Selectivity is the ratio of the IC50 against human NMT to the IC50 against Candida albicans NMT.; assay type: functional
[3] = target: Peptide N-myristoyltransferase (Candida albicans)
[4] = target: Peptide N-myristoyltransferase (Candida albicans); remark: listed apart in the source
[5] = target: T1, Peptide N-myristoyltransferase; assay: Apparent binding affinity against Human NMT.; assay type: protein assay

| SMILES | IC50 [1] [nM] | Selectivity [2] | IC50 [3] [nM] | Ki [4] [nM] | Ki [5] [nM] |
| --- | --- | --- | --- | --- | --- |
| CC(C)CCNC(=O)[C@H](CCCCN)NC(=O)[C@H](CO)NC(=O)CCCCCCCCCCN | 420 | 0.5 | 780 |  |  |
| CC(C)C[C@H](NC(=O)[C@H](CCCCN)NC(=O)[C@H](CO)NC(=O)CCCCCCCCCCN)C(N)=O (H-[Aun]SKL-NH2) | 230 | 0.2 | 1200 |  |  |
| NCCCC[C@H](NC(=O)[C@H](CO)NC(=O)Cc1ccc(CCCCn2ccnc2)cc1)C(=O)NCCC1CCCCC1 | 16000 | 38 | 420 | 590 |  |
| NCCCCCCCCCCC(=O)N[C@@H](CO)C(=O)N[C@@H](CCCCN)C(=O)NCCC1CCCCCCC1 | 1140 | 3.8 | 300 | 130 |  |
| NCCCC[C@H](NC(=O)[C@H](CO)NC(=O)CCCCCCCCCCn1ccnc1)C(=O)NCCC1CCCCC1 | 11400 | 7.1 | 1600 | 760 | 4200 |
